Entries after “also recorded” stand apart in the source; their conditions may differ.
Each compound was assayed against human DNA ligase IV (Homo sapiens, UniProt P49917) (assay: High-throughput fluorescence-based DNA joining (ligation) assay). Settings: 100 μM.
Format: biochemical
Text: (§1) The method for screening compounds comprises testing the compound for the ability to inhibit human DNA ligases I, III and IV with a high throughput fluorescence-based ligation assay. In this assay, phosphodiester bond formation covalently links together two oligonucleotides, one of which is a fluorescent donor AF488 that is 11 nucleotides from the 3′ terminus and the other contains a fluorescence acceptor and quencher, BHQ1 that is 15 nucleotides from the 5′ terminus. When these oligonucleotides are present in separate duplexes and in the same nicked or intact duplex, there is no significant quenching of fluorescence because the donor and acceptor are too far apart. As single-strands neither the AF488 oligonucleotide nor the BHQ1 oligonucleotides have significant secondary structure. However, when these oligonucleotides are ligated together, the resultant single strand forms a stable hairpin structure, in which the AF488 and BHQ1 groups are very close together, resulting in efficient intra-molecular quenching of fluorescence. Thus, in the DNA joining assay, the DNA substrate is denatured after incubation with the DNA ligase and then renatured in the presence of a 20-fold excess of an oligonucleotide that is identical to the ligated strand containing the fluorescent door and acceptor except that it lacks these modifications. Using this assay, DNA joining, which results in reduced fluorescence at 518 nm, can be measured rapidly, quantitatively and with high-throughput using a fluorescence plate reader.
(§2) Applicants developed a novel high throughput fluorescence-based ligation assay by modifying the sequence of the oligos to optimize hairpin formation by the single strand ligated product of the high throughput fluorescence-based ligation assay of Chen et al (22). […] Compound stock solutions, which were 10 mM in 0.5% DMSO, were diluted in 0.5% DMSO. Human DNA ligases I and III were assayed with a nicked DNA substrate whereas as the substrate for human DNA ligase IV was two oligonucleotide duplexes with short complementary single strand ends.

Chain of human DNA ligase IV (P49917 whole entry): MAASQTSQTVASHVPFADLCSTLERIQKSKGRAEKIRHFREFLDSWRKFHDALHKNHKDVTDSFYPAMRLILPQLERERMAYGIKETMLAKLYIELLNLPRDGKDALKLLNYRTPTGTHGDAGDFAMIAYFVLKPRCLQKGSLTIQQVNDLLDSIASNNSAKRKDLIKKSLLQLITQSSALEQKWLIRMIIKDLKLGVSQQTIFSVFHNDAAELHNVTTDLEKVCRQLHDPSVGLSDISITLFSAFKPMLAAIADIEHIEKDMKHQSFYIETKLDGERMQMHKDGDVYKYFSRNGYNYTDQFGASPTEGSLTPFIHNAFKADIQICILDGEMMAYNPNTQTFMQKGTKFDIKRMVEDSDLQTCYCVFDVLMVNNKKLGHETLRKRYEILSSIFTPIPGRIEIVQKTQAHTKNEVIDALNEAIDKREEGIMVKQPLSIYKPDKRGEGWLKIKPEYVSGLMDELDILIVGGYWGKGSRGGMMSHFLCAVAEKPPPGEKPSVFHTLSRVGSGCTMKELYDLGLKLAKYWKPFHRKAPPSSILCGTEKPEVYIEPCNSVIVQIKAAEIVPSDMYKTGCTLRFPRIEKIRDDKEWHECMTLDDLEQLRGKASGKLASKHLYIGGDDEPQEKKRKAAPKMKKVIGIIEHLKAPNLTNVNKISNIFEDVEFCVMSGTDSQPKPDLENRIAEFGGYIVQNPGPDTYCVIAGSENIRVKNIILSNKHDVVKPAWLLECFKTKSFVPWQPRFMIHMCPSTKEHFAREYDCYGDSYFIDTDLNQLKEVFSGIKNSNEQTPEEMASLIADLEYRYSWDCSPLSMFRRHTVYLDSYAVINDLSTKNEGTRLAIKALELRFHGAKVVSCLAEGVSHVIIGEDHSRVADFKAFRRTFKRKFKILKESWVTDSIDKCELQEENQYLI
Chain of human DNA ligase IV (Q13426 whole entry partner): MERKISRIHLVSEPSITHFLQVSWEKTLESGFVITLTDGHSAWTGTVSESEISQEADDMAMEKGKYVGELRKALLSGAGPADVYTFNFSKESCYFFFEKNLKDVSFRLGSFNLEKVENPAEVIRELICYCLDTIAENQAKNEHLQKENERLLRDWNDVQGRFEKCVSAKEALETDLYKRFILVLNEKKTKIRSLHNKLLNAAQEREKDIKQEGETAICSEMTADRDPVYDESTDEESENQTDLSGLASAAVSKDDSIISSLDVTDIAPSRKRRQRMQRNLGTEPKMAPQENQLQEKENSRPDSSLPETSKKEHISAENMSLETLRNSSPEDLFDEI

| Structure (SMILES) | % of inhibition @ 100 μM (Helen's data) hLigIV |
| --- | --- |
| O=C(O)Cc1ccccc1S(=O)(=O)c1ccc(Cl)cc1 [Compound 193] | NI (NI- no inhibition) |
| O=C(NN=Cc1ccc(S(=O)(=O)O)o1)c1ccccc1O [Compound 79] | NI (NI- no inhibition) |

Same assay, conditions: 100 μM; read-out: % of inhibition @ 100 μM (Helen's data) hLigIV

| Structure (SMILES) | inhibition at 100 µM [%] |
| --- | --- |
| Sc1nccc(-c2cccnc2)n1 [Compound 130] | < 20 |
| Oc1nn(-c2ccc(Br)cc2)cc1Br [Compound 221] | < 20 |
| O=C(O)c1ccc([N+](=O)[O-])c(C(=O)O)n1 [Compound 212] | < 20 |
| COC(=O)c1scc(Br)c1O [Compound 124] | < 20 |

Same assay, conditions: 100 μM; read-out: In vitro % inhib hLigIV 100

| Structure (SMILES) | inhibition at 100 µM [%] |
| --- | --- |
| O=C1Nc2c(C(=O)O)cccc2C1=O [Compound 25] | 0 |

Same assay, conditions: 100 uM; Ø not defined (0 in Table 5A)

| Structure (SMILES) | % activity Inhibition hLigIV 100 uM |
| --- | --- |
| O=C(O)c1ccc(Sc2ccccn2)c([N+](=O)[O-])c1 [Compound 47] | Ø |
| COc1cccc(Cn2nnc(C(=O)O)c2C(=O)O)c1 [Compound 103] | Ø |
| CCC(Nc1ncnc2ccccc12)C(=O)O (centres unmarked) [Compound 51] | Ø |
| O=C(O)Cc1ccccc1S(=O)(=O)c1ccc(Cl)cc1 [Compound 193] | Ø |
| O=C1Nc2c(C(=O)O)cccc2C1=O [Compound 25] | Ø |

Each compound was assayed against T1, human DNA ligase III (Homo sapiens, UniProt P49916) in the same assay as above. Settings: 100 μM.
T1 sequence (P49916 1-862 isoform P49916-4): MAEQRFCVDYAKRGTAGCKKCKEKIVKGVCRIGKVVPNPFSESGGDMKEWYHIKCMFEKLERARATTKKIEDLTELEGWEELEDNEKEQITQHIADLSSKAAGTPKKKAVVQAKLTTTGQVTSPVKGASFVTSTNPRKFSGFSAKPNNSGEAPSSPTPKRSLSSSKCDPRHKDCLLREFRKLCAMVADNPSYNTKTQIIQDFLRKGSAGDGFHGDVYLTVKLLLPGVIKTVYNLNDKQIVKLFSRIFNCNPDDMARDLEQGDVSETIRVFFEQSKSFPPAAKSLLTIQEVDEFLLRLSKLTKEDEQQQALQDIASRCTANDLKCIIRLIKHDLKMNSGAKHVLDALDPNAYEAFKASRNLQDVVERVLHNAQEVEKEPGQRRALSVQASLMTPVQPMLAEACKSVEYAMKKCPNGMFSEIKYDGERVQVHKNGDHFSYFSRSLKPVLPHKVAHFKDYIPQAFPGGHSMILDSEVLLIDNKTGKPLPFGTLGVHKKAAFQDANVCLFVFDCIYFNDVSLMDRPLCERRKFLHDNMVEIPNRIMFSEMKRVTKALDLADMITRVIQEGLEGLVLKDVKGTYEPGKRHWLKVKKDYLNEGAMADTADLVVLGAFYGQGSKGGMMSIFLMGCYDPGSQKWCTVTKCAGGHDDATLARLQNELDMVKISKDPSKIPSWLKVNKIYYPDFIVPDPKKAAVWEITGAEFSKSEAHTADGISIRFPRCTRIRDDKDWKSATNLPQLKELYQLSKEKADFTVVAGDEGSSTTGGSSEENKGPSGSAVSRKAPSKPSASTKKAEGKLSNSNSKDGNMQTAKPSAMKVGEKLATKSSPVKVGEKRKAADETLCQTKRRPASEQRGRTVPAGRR
Format: biochemical
Text: as §1, §2

| Structure (SMILES) | % of inhibition @ 100 μM (Helen's data) hLigIII |
| --- | --- |
| O=C(O)Cc1ccccc1S(=O)(=O)c1ccc(Cl)cc1 [Compound 193] | NI (NI- no inhibition) |
| O=C(NN=Cc1ccc(S(=O)(=O)O)o1)c1ccccc1O [Compound 79] | NI (NI- no inhibition) |

Same assay, conditions: 100 μM; read-out: In vitro % inhib hLigIII 100

| Structure (SMILES) | inhibition at 100 µM [%] |
| --- | --- |
| O=C1Nc2c(C(=O)O)cccc2C1=O [Compound 25] | 73 ± 5 |

Same assay, conditions: 100 uM; Ø not defined (0 in Table 5A)

| Structure (SMILES) | % activity Inhibition hLigIII 100 uM |
| --- | --- |
| O=C(O)c1ccc(Sc2ccccn2)c([N+](=O)[O-])c1 [Compound 47] | Ø |
| COc1cccc(Cn2nnc(C(=O)O)c2C(=O)O)c1 [Compound 103] | Ø |
| CCC(Nc1ncnc2ccccc12)C(=O)O (centres unmarked) [Compound 51] | Ø |
| O=C(O)Cc1ccccc1S(=O)(=O)c1ccc(Cl)cc1 [Compound 193] | Ø |

Same assay, conditions: 100 uM; Ø not defined (0 in Table 5A); read-out: % activity Inhibition hLigIII 100 uM

| Structure (SMILES) | inhibition at 100 µM [%] |
| --- | --- |
| O=C1Nc2c(C(=O)O)cccc2C1=O [Compound 25] | 72.8 ± 4.8 |

Same assay, conditions: in vitro screen

| Structure (SMILES) | inhibition of human DNA ligase III, in words |
| --- | --- |
| O=C1Nc2c(C(=O)O)cccc2C1=O [Compound 25] | specifically inhibit DNA ligases I and III |

Same assay, conditions: read-out: % of inhibition @ 100 μM (Helen's data) hLigIII

| Structure (SMILES) | inhibition at 100 µM [%] |
| --- | --- |
| Sc1nccc(-c2cccnc2)n1 [Compound 130] | < 20 |
| Oc1nn(-c2ccc(Br)cc2)cc1Br [Compound 221] | < 20 |
| O=C(O)c1ccc([N+](=O)[O-])c(C(=O)O)n1 [Compound 212] | < 20 |
| COC(=O)c1scc(Br)c1O [Compound 124] | < 20 |

What follows are compounds tested against T2, T4 DNA ligase (Enterobacteria phage T4, UniProt P00970) (assay: High-throughput fluorescence-based DNA joining assay, non-specific inhibitor control). Settings: 100 uM.
T2 construct: purchased NEB
T2 sequence (P00970 1-487): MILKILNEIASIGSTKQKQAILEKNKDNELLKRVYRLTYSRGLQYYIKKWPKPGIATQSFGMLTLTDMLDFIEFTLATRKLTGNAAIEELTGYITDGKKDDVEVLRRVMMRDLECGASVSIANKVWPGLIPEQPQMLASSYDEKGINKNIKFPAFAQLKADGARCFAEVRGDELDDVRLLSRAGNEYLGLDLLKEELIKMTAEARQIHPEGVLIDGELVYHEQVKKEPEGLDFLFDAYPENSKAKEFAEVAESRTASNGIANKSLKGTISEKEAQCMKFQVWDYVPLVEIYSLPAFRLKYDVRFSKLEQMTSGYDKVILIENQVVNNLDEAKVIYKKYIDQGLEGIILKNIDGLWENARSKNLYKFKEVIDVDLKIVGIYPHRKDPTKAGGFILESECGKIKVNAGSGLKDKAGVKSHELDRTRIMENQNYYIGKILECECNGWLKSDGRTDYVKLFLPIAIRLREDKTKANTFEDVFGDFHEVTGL
Format: biochemical, bacteriophage T4
Description: (§3) Candidate ligase inhibitors identified by CADD were assayed for their ability to inhibit hLigI and T4 DNA ligase using a high-throughput, fluorescence energy transfer-based DNA joining assay (22). Duplicate reactions (30 μL) containing 10 pmol of nicked DNA substrate and either 0.25 pmol of hLigI or 10 units of T4 DNA ligase were incubated in the presence or absence of 100 μmol/L of the putative inhibitor. DNA binding by the candidate DNA ligase inhibitors was measured by displacement of ethidium bromide from DNA as previously described (30).
In addition, to identify compounds that may be non-specific inhibitors of DNA joining, the 192 compounds were also assayed for their ability to inhibit bacteriophage T4 DNA ligase, an enzyme that utilizes the same reaction mechanism as hLigI, has similar adenylation and OB-fold domains but lacks a DBD domain. (6) Although this is also an ATP-dependent DNA ligase, it lacks the domain containing the binding pocket targeted by the in silico screen. Compounds that inhibited T4 DNA ligase were eliminated as non-specific inhibitors that most likely bind to the DNA.

| Structure (SMILES) | % activity Inhibition LigT4 100 uM [%] |
| --- | --- |
| O=C(O)Cc1ccccc1S(=O)(=O)c1ccc(Cl)cc1 [Compound 193] | 0.44 ± 2.1 |

Same assay, conditions: 100 μM; read-out: In vitro % inhib T4 100

| Structure (SMILES) | inhibition at 100 µM [%] |
| --- | --- |
| O=C1Nc2c(C(=O)O)cccc2C1=O [Compound 25] | 13 ± 6 |

Same assay, conditions: read-out: % activity Inhibition LigT4 100 uM

| Structure (SMILES) | inhibition at 100 µM [%] |
| --- | --- |
| O=C(O)c1ccc(Sc2ccccn2)c([N+](=O)[O-])c1 [Compound 47] | 2.2 ± 0.7 |
| COc1cccc(Cn2nnc(C(=O)O)c2C(=O)O)c1 [Compound 103] | 6.2 ± 4.3 |
| CCC(Nc1ncnc2ccccc12)C(=O)O (centres unmarked) [Compound 51] | 0 |
| O=C1Nc2c(C(=O)O)cccc2C1=O [Compound 25] | 12.9 ± 6.3 |

These compounds were tested against T3, hLigI (Homo sapiens, UniProt P18858) (assay: High-throughput fluorescence-based DNA joining (ligation) assay). Settings: 100 uM.
T3 construct: made in house
T3 sequence (P18858 whole entry): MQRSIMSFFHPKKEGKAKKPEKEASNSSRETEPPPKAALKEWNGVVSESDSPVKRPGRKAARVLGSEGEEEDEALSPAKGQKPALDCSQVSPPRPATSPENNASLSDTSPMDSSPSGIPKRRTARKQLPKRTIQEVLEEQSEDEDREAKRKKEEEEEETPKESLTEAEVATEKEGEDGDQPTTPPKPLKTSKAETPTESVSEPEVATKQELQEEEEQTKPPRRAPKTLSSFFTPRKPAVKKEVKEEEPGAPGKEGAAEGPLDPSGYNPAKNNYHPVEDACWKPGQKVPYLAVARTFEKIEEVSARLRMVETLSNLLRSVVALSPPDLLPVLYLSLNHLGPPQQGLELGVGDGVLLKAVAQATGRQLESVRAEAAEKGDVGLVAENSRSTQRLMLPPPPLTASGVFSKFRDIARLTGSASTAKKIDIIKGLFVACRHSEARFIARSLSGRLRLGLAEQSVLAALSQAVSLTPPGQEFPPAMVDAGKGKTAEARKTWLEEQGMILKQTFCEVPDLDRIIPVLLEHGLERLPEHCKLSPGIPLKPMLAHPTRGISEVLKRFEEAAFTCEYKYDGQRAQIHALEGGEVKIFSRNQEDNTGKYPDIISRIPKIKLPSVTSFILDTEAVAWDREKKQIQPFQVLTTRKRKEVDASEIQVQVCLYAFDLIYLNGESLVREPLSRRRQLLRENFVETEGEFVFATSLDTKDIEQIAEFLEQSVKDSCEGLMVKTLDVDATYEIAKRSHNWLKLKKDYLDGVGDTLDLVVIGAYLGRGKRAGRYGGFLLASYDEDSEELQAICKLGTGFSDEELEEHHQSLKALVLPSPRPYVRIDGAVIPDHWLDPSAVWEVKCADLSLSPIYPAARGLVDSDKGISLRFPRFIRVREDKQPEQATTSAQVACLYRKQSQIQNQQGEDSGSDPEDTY
Format: biochemical
Description: as §3, §1, §2

| Structure (SMILES) | % activity Inhibition hLigI 100 uM [%] |
| --- | --- |
| O=C(O)Cc1ccccc1S(=O)(=O)c1ccc(Cl)cc1 [Compound 193] | 28.2 ± 34.4 |

Same assay, conditions: 100 μM

| Structure (SMILES) | % of inhibition @ 100 μM (Helen's data) hLigI |
| --- | --- |
| O=C(O)Cc1ccccc1S(=O)(=O)c1ccc(Cl)cc1 [Compound 193] | NI (NI- no inhibition) |
| O=C(NN=Cc1ccc(S(=O)(=O)O)o1)c1ccccc1O [Compound 79] | NI (NI- no inhibition) |

Same assay, conditions: 100 uM; read-out: % activity Inhibition hLigI 100 uM

| Structure (SMILES) | inhibition at 100 µM [%] |
| --- | --- |
| O=C(O)c1ccc(Sc2ccccn2)c([N+](=O)[O-])c1 [Compound 47] | 24.2 ± 4.3 |
| COc1cccc(Cn2nnc(C(=O)O)c2C(=O)O)c1 [Compound 103] | 23.1 ± 1.8 |
| CCC(Nc1ncnc2ccccc12)C(=O)O (centres unmarked) [Compound 51] | 24.3 ± 13.5 |
| O=C1Nc2c(C(=O)O)cccc2C1=O [Compound 25] | 59.3 ± 7.5 |

Same assay, conditions: 100 μM; read-out: % of inhibition @ 100 μM (Helen's data) hLigI

| Structure (SMILES) | inhibition at 100 µM [%] |
| --- | --- |
| Sc1nccc(-c2cccnc2)n1 [Compound 130] | < 20 |
| Oc1nn(-c2ccc(Br)cc2)cc1Br [Compound 221] | > 20 |
| O=C(O)c1ccc([N+](=O)[O-])c(C(=O)O)n1 [Compound 212] | < 20 |
| COC(=O)c1scc(Br)c1O [Compound 124] | < 20 |

Same assay, conditions: 100 μM; read-out: In vitro % inhib hLigI 100

| Structure (SMILES) | inhibition at 100 µM [%] |
| --- | --- |
| O=C1Nc2c(C(=O)O)cccc2C1=O [Compound 25] | 59 ± 8 |

Same assay, conditions: in vitro screen, 100 μmol/L; the 15 hLigI inhibitors inhibited by >50%

| Structure (SMILES) | inhibition of hLigI (DNA ligase I), in words |
| --- | --- |
| O=C1Nc2c(C(=O)O)cccc2C1=O [Compound 25] | inhibited hLigI; also recorded: specifically inhibit DNA ligases I and III |
